Laboratory results reported in patent US20050148069A1, “IGF-1 instructs multipotent adult CNS neural stem cells to an oligodendroglial lineage” (priority 2003, published 2005).

Assays:
[1] = tested on: adult hippocampus-derived neural progenitor cells; test: cell death by live staining with propidium iodide and Hoechst 33342; format: cell-based, rat; conditions: 500 ng/ml IGF-I
Procedure: We first directly measured the effect of IGF-I on cell survival. We asked whether a selective decrease in the death of oligodendrocytes (and/or oligodendrocyte progenitors) could explain the net increase in number of oligodendrocytes (defined by the expression of RIP, a marker of both immature and mature oligodendrocytes). […] To quantify cell death of the progeny of neural progenitor cells, living cultures were stained with propidium iodide (1 μg/ml), which stains dead cells, and Hoechst 33342 (1 μg/ml), which stains live and dead cells. Staining of live, rather than fixed, cultures was used to avoid underestimating cell death due to possible detachment of dying and/or dead cells from culture substrates. […]
Cells were fixed with 4% paraformaldehyde, followed by immunocytochemical staining as described (Palmer et al., 1999). […] Quantification of cell phenotypes was with StereoInvestigator (MicroBrightfield Inc.); for each marker, 500-1000 cells were sampled systematically from standardized fields at 40×magnification. For quantification of live/dead cells, images were taken of cultures live-stained with propidum iodide (1 μg/ml; Molecular Probes) and Hoescht 33342 (1 μg/ml; Sigma) at 10×magnification, and cells were counted using Image-Pro (Media Cybernetics). […]

[2] = tested on: Smad6; test: quantitative real time PCR, Smad6 expression; format: cell-based, rat; conditions: 500 ng/ml IGF-I, up to 48 hours, normalized to GAPDH
From the text: If IGF-I induction of oligodendrocyte differentiation involves the inhibition of BMP signaling, a change in the expression of BMP antagonists after IGF-I treatment might be observed. In addition to extracellular antagonists of BMP signaling, such as Noggin, intracellular proteins that can interfere with downstream BMP receptor signaling, called inhibitory Smads (Smad6, 7), have also been identified (Christian and Nakayama, 1999). Therefore, we performed Q-PCR analyses of cultures treated with IGF-I after various time points (up to 48 hours) and examined the relative fold change (normalized to an internal control; see Methods) of Noggin, Smad6, 7 (FIG. 6, A-C). Expression of Noggin, Smad6, 7 increased by at least 6-, 5-, and 2-fold, respectively, after IGF-I treatment (p<0.05, t-test). There may be an unexplained downregulation of Smad6 at the 48-h time point.
Total RNA was isolated from cell cultures using RNeasy columns (Qiagen). For real-time quantitative PCR, reactions were carried out essentially as described (Zhao et al., 2001). The relative amount of the tested message was normalized to the level of the internal control message, GAPDH. […] Primer sequences are available upon request.

IGF-I: human recombinant IGF-I (R&D Systems), growth factor polypeptide
percentage of dead/dying cells ([1]; every 12 hours up to 48 h): relatively small percentage of dead/dying cells | change in the percentage of cells that died between time points ([1]; one-way ANOVA): no significant change | relative fold change of Smad6 expression [2]: ≥ 5 fold
